{"source": "patent US20250034413A1", "about": "“METHODS FOR DECELLULARIZING ANIMAL TISSUE AND BIOINKS DERIVED THEREFROM” (VIRGINIA COMMONWEALTH UNIVERSITY, priority 2021, published 2025)", "key": {"[1]": {"test_system": "AGEs in decellularized muscle matrix (DMM)", "test": "Reduction of AGEs in decellularized mouse gastrocnemius muscle matrix (DMM)", "type": "biochemical", "conditions": "C57BL6 mouse gastrocnemius, 2-month vs 20-month; 10 mM ALT-711, 37° C., 5 days; FIG. 3", "method": "• i. Gastrocnemius is thawed in a 37° C. water bath and then butterflied. • ii. The muscles are washed in a T-25 flask (standing vertical) with 20 ml of deionized water per well 3 times for 10 minutes each. • iii. Tissue is then treated with 20 ml of 0.25% Trypsin for 12-16 hours in a T-25 flask (standing vertical) on an orbital shaker plate. Use tape to secure the flask in a vertical position. • iv. Trypsin treatment is followed by 3 20 ml 15 minute deionized water washes per well. • v. Tissue is treated with 20 mL of 0.1% TRITON X-100™ in a T-25 flask for 8 hours at 4° C. The volume is replaced with fresh TRITON X-100™ and the tissue is treated for another 16 hours. Treatment is followed by 3 20 ml 15 minute deionized water washes per well. • vi. Samples are placed in 20 mL of 60 mM sodium deoxycholate with 0.6 mM SB-16 for 8 hours in a T-25 flask at 4° C. The volume is replaced with fresh sodium deoxycholate and SB-16 and the tissue is treated for another 16 hours. • vii. Samples are washed as described in deionized water and placed in 20 mL of 70 mM CHAPS for 8 hours in a T-25 mL flask at 4° C. The volume is replaced with fresh CHAPS and the tissue is treated for another 16 hours. • viii. […]"}, "AGEs in human DMM": {"test_system": "AGEs in human DMM", "test": "Reduction of AGEs in human decellularized muscle matrix (DMM) from MTF Biologics", "type": "biochemical", "conditions": "older human samples, 10 mM ALT-711, 37° C., 5 days", "method": "Exemplary method for reducing AGEs in decellularized muscle xi. 10 mM ALT-711 is added to each well, and then placed in the 37° C. incubator for 5 days.\nxii. After 5 days, the samples are washed 3 times with diH20 each, and then the samples are frozen at −80° C.\nIn addition, human decellularized muscle from MTF Biologics was also tested for feasibility to reduce AGEs in older human samples using the same protocol as described above."}}, "note": "Entries after “also recorded” stand apart in the source; their conditions may differ."}
{"smiles": "Cc1sc[n+](CC(=O)c2ccccc2)c1C.[Cl-]", "note": "[ALT-711, alargebrium chloride 711]", "values": [{"measurement": "level of AGEs in decellularized muscle matrix (DMM)", "setting": "[1]", "result": "reduced levels of AGEs; also recorded: reduces the higher level of AGEs seen in the 20-month decellularized muscle matrix (DMM) to young adult levels"}, {"measurement": "AGEs normalized to protein", "setting": "AGEs in human DMM; FIG. 4A", "result": "reduced AGEs"}, {"measurement": "AGEs normalized to hydroxyproline", "setting": "AGEs in human DMM; FIG. 4B", "result": "reduced AGEs"}]}
